Results reported in patent publication US11279733B2, “Peptide antibiotics” (priority 2017, dated 2022).
Values after ≈ are worked out from the molar mass of the structure shown. Positions of bridges follow the written chain, without caps; N, C: chain ends. Non-standard residues stand in square brackets, D forms with d. Residues, ends and D or L forms follow the SMILES beside them. *: point of attachment. Decanoyl(3R-OH) = CCCCCCC[C@@H](O)CC(=O)*; Heptanoyl(6-Me) = CC(C)CCCCC(=O)*; dDab = NCC[C@@H](N)C(=O)O; dDap = NC[C@@H](N)C(=O)O; Dab = NCC[C@H](N)C(=O)O

Columns and labels:
bacterial strains = assay: Potentiation/synergy antimicrobial assay (checkerboard, FICI) with antibiotics; format: cell-based; conditions: for MIC of antibiotic with 6442 at concn 0: 6442 0 μg/mL; for MIC of antibiotic with 8980 at conc 0: 8980 0 μg/mL; for MIC of antibiotic with 8980 at conc 1: 8980 1 μg/mL; for MIC of antibiotic with 8981 at conc 0: 8981 0 μg/mL; for MIC of antibiotic with 8981 at conc 1: 8981 1 μg/mL; for MIC of antibiotic with 8981 at conc 2: 8981 2 μg/mL; for MIC of antibiotic with 8981 at conc 4: 8981 4 μg/mL; for MIC of antibiotic with OctC4 at concn 0: OctC4 0 μg/mL; for MIC of antibiotic with OctC4 at concn 0.125: OctC4 0.125 μg/mL
Experimental: Potentiation/synergy antimicrobial assays were conducted in the same manner as the standard MICs described above, with the following modifications. Assays were performed in 384-well non-binding surface plates (NBS; Corning 3460) and in Cation-adjusted Mueller Hinton Broth (CA-MHB; BD, Cat. No. 212322) with a final assay volume of 50 μL once bacteria was added at 5×10^5 CFU/mL. Antibiotics and octapeptin compounds were plated in duplicate as a 2-fold concentration series, in a matrix checkerboard format. The bacterial cell density of the resultant assay plates after 18-20 h incubation at 37° C. was read by optical density 600 nm (OD600) using a Tecan M1000 Pro Spectrophotometer, and analysed for ≥90% growth inhibition compared to the growth control to determine active concentrations. Synergistic effect was calculated based on the fractional inhibitory concentration index (FICI) by the following equation, where synergy is deemed FICI 0.5: […]

A. baumannii ATCC 19606 = conditions: ATCC 19606
Summary of the method: (§1)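 Mid-log cultures grown in Mueller Hinton broth at 37° C were tested by 2-fold broth microdilution at 5×10^5 CFU/mL final. Compounds were dissolved in water and tested over a final range of 32 to 0.015 μg/mL.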

A. baumannii GN_093 PmxR = conditions: GN 093 PmxR
Summary of the method: as §1

E. coli ATCC 25922 = conditions: ATCC 25922
Summary of the method: as §1

K. pneumoniae ATCC 13883 = conditions: ATCC 13883
Summary of the method: as §1

[1] = system: K. pneumoniae ATCC 700603, MDR; conditions: ATCC 700603
Summary of the method: as §1

[2] = system: K. pneumoniae ATCC BAA-2146, NDM-1 pos; conditions: ATCC BAA-2146
Summary of the method: as §1

[3] = system: K. pneumoniae GN_102 PmxR; conditions: GN 102 PmxR
Summary of the method: as §1

[4] = system: K. pneumoniae GN_106, PmxR; conditions: GN 106, PmxR
Summary of the method: as §1

P. aeruginosa ATCC 27853 = conditions: ATCC 27853
Summary of the method: as §1

[5] = system: P. aeruginosa GN_043, PmxR; conditions: P. aeruginosa GN_043, PmxR
Summary of the method: as §1

[6] = system: P. aeruginosa GN_105, PmxR; conditions: GN 105, PmxR
Summary of the method: as §1

in vitro = conditions: human
Experimental: Cytotoxicity of the synthesised peptides was evaluated by comparison with commercially available colistin (polymyxin E), polymyxin B (Sigma chemical Co., St. Louis, Mo., U.S.A.) and synthetic octapeptin C4 by conducting lactate dehydrogenase (LDH) assay. CC50 values calculated based on curve fitting of dose dependent inhibition of cell growth represented the cytotoxicity of the peptide. Human kidney 2 (HK2) cells were seeded as 2000 cells per well in a 384 well cell culture plate in a final volume of 20 μL in DMEM/F12 medium (Invitrogen #11330057), in which 10% of FBS was added. Cells were incubated for 24 hours at 37° C., 5% CO2 to allow cells to attach to the plates. Similar conditions were employed for HEK293 and HepG2 cytotoxicity assays.
Cytotoxicity to HEK293 and HepG2 cells was determined using the resazurin assay (McMillian, M. K.; Li, L.; Parker, J. B.; Patel, L.; Zhong, Z.; Gunnett, J. W.; Powers, W. J.; Johnson, M. D. An improved resazurin-based cytotoxicity assay for hepatic cells; Cell Biol. Toxicol. 2002, 18, 157-173; O'Brien, J.; Wilson, I.; Orton, T.; Pognan, F. Investigation of the Alamar Blue (resazurin) fluorescent dye for the assessment of mammalian cell cytotoxicity. Eur. J. Biochem. 2000, 267, 5421-5426). In brief, HEK293 and HepG2 cells were seeded at 4000 cells/well in black-wall, clear-bottom 384-well plates (Corning, Australia) and incubated for 24 h at 37° C., 5% CO2. Compounds were then added into each well. After 24 h incubation, 5 μM resazurin was added per well and incubated at 37° C. for 2 h. Fluorescence intensity was then read using a Polarstar Omega with excitation/emission 560/590. The data was then analyzed using GraphPad Prism 6 software. CC50 values were determined using GraphPad Prism 6 software (Inc. La Jolla, Calif.).

CO[C@H]1/C=C/O[C@@]2(C)Oc3c(C)c(O)c4c(O)c(c(/C=N/N5CCN(C)CC5)c(O)c4c3C2=O)NC(=O)/C(C)=C\C=C\[C@H](C)[C@H](O)[C@@H](C)[C@@H](O)[C@@H](C)[C@H](OC(C)=O)[C@@H]1C [Rifampicin, rifampicin]
MIC of antibiotic with 6442 at concn 0 (bacterial strains; GN_102 K. pneumoniae XDR/PmxR): 32 µg/mL | MIC of antibiotic with 6442 at concn 0.125 (bacterial strains; GN_102 K. pneumoniae XDR/PmxR, 6442 0.125 μg/mL): 16 µg/mL | MIC of antibiotic with 8980 at conc 0 (bacterial strains; GN_102 K. pneumoniae XDR/PmxR): 32 µg/mL | MIC of antibiotic with 8980 at conc 1 (bacterial strains; GN_102 K. pneumoniae XDR/PmxR): 16 µg/mL | MIC of antibiotic with 8981 at conc 0 (bacterial strains; GN_102 K. pneumoniae XDR/PmxR): 32 µg/mL | MIC of antibiotic with 8981 at conc 1 (bacterial strains; GN_102 K. pneumoniae XDR/PmxR): 16 to 32 µg/mL | MIC of antibiotic with 8981 at conc 2 (bacterial strains; GN_102 K. pneumoniae XDR/PmxR): 16 µg/mL | MIC of antibiotic with 8981 at conc 4 (bacterial strains; GN_102 K. pneumoniae XDR/PmxR): 8 to 16 µg/mL | MIC of antibiotic with OctC4 at concn 0 (bacterial strains; GN_102 K. pneumoniae XDR/PmxR): 32 µg/mL | MIC of antibiotic with OctC4 at concn 0.0625 (bacterial strains; GN_102 K. pneumoniae XDR/PmxR, OctC4 0.0625 μg/mL): 32 µg/mL | MIC of antibiotic with OctC4 at concn 0.125 (bacterial strains; GN_102 K. pneumoniae XDR/PmxR): 32 µg/mL | MIC of antibiotic with 6442 at concn 0 (bacterial strains; GN_181 E. coli mcr-1): 32 µg/mL | MIC of antibiotic with 6442 at concn 0.25 (bacterial strains; GN_181 E. coli mcr-1, 6442 0.25 μg/mL): 0.25 µg/mL | MIC of antibiotic with 8980 at conc 0 (bacterial strains; GN_181 E. coli mcr-1): 32 µg/mL | MIC of antibiotic with 8980 at conc 1 (bacterial strains; GN_181 E. coli mcr-1): 32 µg/mL | MIC of antibiotic with 8980 at conc 2 (bacterial strains; GN_181 E. coli mcr-1, 8980 2 μg/mL): 32 µg/mL | MIC of antibiotic with 8980 at conc 4 (bacterial strains; GN_181 E. coli mcr-1, 8980 4 μg/mL): 32 µg/mL | MIC of antibiotic with 8981 at conc 0 (bacterial strains; GN_181 E. coli mcr-1): 32 µg/mL | MIC of antibiotic with 8981 at conc 1 (bacterial strains; GN_181 E. coli mcr-1): 32 µg/mL | MIC of antibiotic with 8981 at conc 2 (bacterial strains; GN_181 E. coli mcr-1): 32 µg/mL | MIC of antibiotic with 8981 at conc 4 (bacterial strains; GN_181 E. coli mcr-1): 32 µg/mL | MIC of antibiotic with OctC4 at concn 0 (bacterial strains; GN_181 E. coli mcr-1): 32 µg/mL

CCCCCCC[C@@H](O)CC(=O)N[C@H](CCN)C(=O)N[C@H]1CCNC(=O)[C@H](CC(C)C)NC(=O)[C@H](CCN)NC(=O)[C@H](CCN)NC(=O)[C@H]([C@@H](C)O)NC(=O)[C@@H](Cc2ccccc2)NC(=O)[C@H](CCN)NC1=O [compound 9289, 3(R)OH-nC9CO-D-Dab-cyc[L-Dab-L-Dab-D-Phe-L-Thr-L-Dab-L-Dab-L-Leu]] ({Decanoyl(3R-OH)}-[dDab][Dab][Dab][dF]T[Dab][Dab]L; lactam 2-C)
MIC A. baumannii ATCC 19606 (A. baumannii ATCC 19606): 2 µg/mL (≈ 1.94 µM) | MIC A. baumannii GN_093 PmxR (A. baumannii GN_093 PmxR): >32 µg/mL | MIC E. coli ATCC 25922 (E. coli ATCC 25922): 2 µg/mL (≈ 1.94 µM) | MIC K. pneumoniae ATCC 13883 (K. pneumoniae ATCC 13883): 2 µg/mL (≈ 1.94 µM) | MIC K. pneumoniae ATCC 700603, MDR [1]: 1 µg/mL (≈ 0.969 µM) | MIC K. pneumoniae ATCC BAA-2146, NDM-1 pos [2]: 2 µg/mL (≈ 1.94 µM) | MIC K. pneumoniae GN_102 PmxR [3]: >32 µg/mL | MIC K. pneumoniae GN_106, PmxR [4]: >32 µg/mL | MIC P. aeruginosa ATCC 27853 (P. aeruginosa ATCC 27853): 1 µg/mL (≈ 0.969 µM) | MIC P. aeruginosa GN_043, PmxR [5]: >32 µg/mL | MIC P. aeruginosa GN_105, PmxR [6]: >32 µg/mL | CC50 at 24 h (in vitro): > 300 µM

CC(C)CCCCC(=O)N[C@H](CCN)C(=O)N[C@H]1CCNC(=O)[C@H](CC(C)C)NC(=O)[C@H](CCN)NC(=O)[C@H](CCN)NC(=O)[C@H](CC(C)C)NC(=O)[C@@H](Cc2ccccc2)NC(=O)[C@H](CCN)NC1=O [compound 9290, 6Me-nC6CO-D-Dab-cyc[L-Dab-L-Dab-D-Phe-L-Leu-L-Dab-L-Dab-L-Leu]] ({Heptanoyl(6-Me)}-[dDab][Dab][Dab][dF]L[Dab][Dab]L; lactam 2-C)
MIC A. baumannii ATCC 19606 (A. baumannii ATCC 19606): 16 µg/mL (≈ 16 µM) | MIC A. baumannii GN_093 PmxR (A. baumannii GN_093 PmxR): 16 µg/mL (≈ 16 µM) | MIC E. coli ATCC 25922 (E. coli ATCC 25922): 8 µg/mL (≈ 8 µM) | MIC K. pneumoniae ATCC 13883 (K. pneumoniae ATCC 13883): 8 µg/mL (≈ 8 µM) | MIC K. pneumoniae ATCC 700603, MDR [1]: 4 µg/mL (≈ 4 µM) | MIC K. pneumoniae ATCC BAA-2146, NDM-1 pos [2]: 4 µg/mL (≈ 4 µM) | MIC K. pneumoniae GN_102 PmxR [3]: 4 µg/mL (≈ 4 µM) | MIC K. pneumoniae GN_106, PmxR [4]: 4 µg/mL (≈ 4 µM) | MIC P. aeruginosa ATCC 27853 (P. aeruginosa ATCC 27853): 2 µg/mL (≈ 2 µM) | MIC P. aeruginosa GN_043, PmxR [5]: 1 µg/mL (≈ 1 µM) | MIC P. aeruginosa GN_105, PmxR [6]: 16 µg/mL (≈ 16 µM) | CC50 at 24 h (in vitro): > 300 µM

CCCCCCC[C@@H](O)CC(=O)N[C@H](CN)C(=O)N[C@H]1CCNC(=O)[C@H](CC(C)C)NC(=O)[C@H](CCN)NC(=O)[C@H](CCN)NC(=O)[C@H](C(C)C)NC(=O)[C@@H](Cc2ccccc2)NC(=O)[C@H](CCN)NC1=O [compound 9291, 3(R)OH-nC9CO-D-Dap-cyc[L-Dab-L-Dab-D-Phe-L-Val-L-Dab-L-Dab-L-Leu]] ({Decanoyl(3R-OH)}-[dDap][Dab][Dab][dF]V[Dab][Dab]L; lactam 2-C)
MIC A. baumannii ATCC 19606 (A. baumannii ATCC 19606): >32 µg/mL | MIC A. baumannii GN_093 PmxR (A. baumannii GN_093 PmxR): 32 µg/mL (≈ 31.5 µM) | MIC E. coli ATCC 25922 (E. coli ATCC 25922): 2 µg/mL (≈ 1.97 µM) | MIC K. pneumoniae ATCC 13883 (K. pneumoniae ATCC 13883): 8 µg/mL (≈ 7.87 µM) | MIC K. pneumoniae ATCC 700603, MDR [1]: 8 µg/mL (≈ 7.87 µM) | MIC K. pneumoniae ATCC BAA-2146, NDM-1 pos [2]: 8 µg/mL (≈ 7.87 µM) | MIC K. pneumoniae GN_102 PmxR [3]: 32 µg/mL (≈ 31.5 µM) | MIC K. pneumoniae GN_106, PmxR [4]: 32 µg/mL (≈ 31.5 µM) | MIC P. aeruginosa ATCC 27853 (P. aeruginosa ATCC 27853): 2 µg/mL (≈ 1.97 µM) | MIC P. aeruginosa GN_043, PmxR [5]: 2 µg/mL (≈ 1.97 µM) | MIC P. aeruginosa GN_105, PmxR [6]: 32 µg/mL (≈ 31.5 µM) | CC50 at 24 h (in vitro): > 300 µM

arenicin-3
MIC of antibiotic with OctC4 at concn 0 (bacterial strains; GN_043 P. aeruginosa PmxR): 2 µg/mL | MIC of antibiotic with OctC4 at concn 0 (bacterial strains; GN_093 A. baumannii XDR/PmxR): 0.5 µg/mL | MIC of antibiotic with OctC4 at concn 0.125 (bacterial strains; GN_093 A. baumannii XDR/PmxR): 0.008 µg/mL | MIC of antibiotic with OctC4 at concn 0.25 (bacterial strains; GN_093 A. baumannii XDR/PmxR, OctC4 0.25 μg/mL): 0.016 µg/mL
